Data on one substance can be found in article PMC10318527, “Utilization of dietary mixed-linkage β-glucans by the Firmicute Blautia producta” (The Journal of Biological Chemistry, 2023).

The test system of one assay is B. producta ATCC 27340. Put plainly: Growth of B. producta on β-glucans. To be noted: minimal medium containing 1% glucan. It is filed as cell-based, Blautia producta ATCC 27340. On the procedure: Active culture of B. producta and culture conditions were maintained following the recently reported procedure ([31]). Once B. producta grew, cells were centrifuged, and the obtained supernatant was decanted. A pellet of cells was then washed three times with phosphate-buffered saline (PBS) and washed cells were suspended in 2 ml PBS. […] The growth assessment experiments were performed for 96 h, following our recently established protocol ([82]).

The test system of another assay is B. producta ΔSBP. Briefly: Growth of B. producta ΔSBP mutant on barley β-glucan. The conditions noted are these: minimal medium containing 1% barley β-glucan. Type of assay: cell-based, Blautia producta. The method, then: The pBS423-ΔrepA- Δsbp was constructed by inserting 905 bp 5' and 1151 bp 3' flanking regions but lacking 1.2 kb core region of BpSBPMLG. It was inserted between Pst1 sites of the vector. GenScript Biotech (Singapore) PTE LTD carried out synthesis of the 2.2 kb flanking region and insertion into pBS423-ΔrepA. Competent cells of B. producta were prepared after inoculating 1 % primary culture into 300 ml GAM containing glucose (0.2%), sucrose (0.5 M), and glycine (1%). It was incubated until A600 reached 0.5-0.7 at 37 °C under anaerobic conditions. Afterward, cultures were transferred into 50 ml centrifuge tubes and centrifuged at 3000 × g for 20 min. The supernatant was discarded, and pellets were washed three times with washing solution (0.5 M sucrose and 10% glycerol) and stored at -80°C in aliquots of 50 µl.
The first cross-over event for knocking out was achieved by integrating 0.2 to 1 µg pBS423-ΔrepA- Δsbp in 50 µl competent cells of B. producta through electroporation using a condition of 25 µF, 2.0 kV, and 200 Ω. Gene Pulser Xcell (Bio-Rad Laboratories, Hercules, CA, USA) was used for this purpose. The treated cells were instantly mixed with 1 ml anaerobically pre-incubated GAM medium containing 0.2 % glucose, 0.5 M sucrose, 1 % glycine, 20 mM MgCl2.6H2O, and 2 mM CaCl2. […]

The test system of a further assay is BPGH16 mutant W362A. Put plainly: Kinetics of BPGH16 mutant W362A (DNS assay). It is filed as biochemical, Blautia producta ATCC 27340. On the procedure: The residues R331, L358, E379, D381, E384, W362, and H398 of BpGH16MLG were mutated to Ala by the Q5Site-Directed Mutagenesis Kit (New England Biolabs, UK, catalogue no. E0554S). Wild-type plasmid BpGH16-pET28a(+) was used as a template, and mutagenic forward and reverse primers were developed using NEBaseChanger with subtle modifications (Table S4). A 25 μl PCR cocktail was prepared for mutating each residue. The final concentration of Q5 Hot Start High-Fidelity 2X Master Mix was 1X, each primer was at 0.5 μM, the amount of used template was 20 ng, and the rest of the volume was made up of nuclease-free water. PCR was executed using the following conditions-initial denaturation was performed at 98 °C for 1 min, for each cycle-denaturation, annealing, and extension (72 °C) were set for 10 s, 20 s, and 7 min, respectively. […] The mutant protein was then expressed as per the protocol mentioned earlier, and kinetics were performed with barley β-glucan.
Reactions were performed in 100 μl volume mixture using recombinant enzyme (final concentration at 0.1 mg/ml) in 50 mM sodium phosphate buffer (pH 5.7) at 37 °C for 1 h of incubation. […] Enzymatic assays were determined with 3,5- dinitrosalicylic acid (DNS) assay ([85]). […] Consequently, recorded the developed color spectrophotometrically at 575 nm ([85]). […]

A further assay concerns BpGH16MLG (BPGH16). Briefly: Michaelis-Menten kinetics of BpGH16MLG on β-glucans (DNS assay). Type of assay: biochemical, Blautia producta ATCC 27340. The method, then: Then, reactions were terminated by boiling for 5 min. Enzymatic assays were determined with 3,5- dinitrosalicylic acid (DNS) assay ([85]). In brief, 0.05 g Na2SO3 and 1 g DNS were mixed in a 50 ml water-containing reagent bottle and stirred about 6 h using a magnetic stirrer. After that, 200 μl phenol was added and made up to 100 ml. A working solution of DNS was prepared by adding 50 μl glucose (20% (w/v) stock) in prepared 100 ml of reagent mixtures and immediately used for experiments without adding NaOH. 80 μl DNS reagent was added to the reaction mixtures and incubated at 100 °C for 10 min, followed by ice-cooling for 10 min. Consequently, recorded the developed color spectrophotometrically at 575 nm ([85]). A standard curve generated by different concentrations of maltose was used for determining released reducing sugars in each case.

The mark [1] stands for this setting: native BPGH16, DNS assay, pH 5.7, 37 °C.

Entries after “also recorded” stand apart in the source; their conditions may differ.

With Barley β-glucan, the “growth of B. producta on the glucan” value with B. producta ATCC 27340 is reported as “showed growth”; in the assay on B. producta ATCC 27340 (listed as barley MLG), “able to grow”. Moreover, in the assay with B. producta ΔSBP, the “growth of B. producta ΔSBP compared to wild-type strain” value is listed as “significant retardation in growth; also recorded: retarded growth”. Besides, the kcat with BPGH16 mutant W362A amounted to 0 s⁻¹; with BpGH16MLG (BPGH16) (BpGH16MLG with barley MLG, no unit, in 1/s) it was 62 ± 1.23; in the assay with BpGH16MLG (BPGH16) (setting [1]) it was 62 ± 1.2 s⁻¹. Further, the Km turned out to be 0.22 ± 0.04 with BpGH16MLG (BPGH16) (BpGH16MLG with barley MLG, no unit) and 0.22 ± 0.04 mg/mL with BpGH16MLG (BPGH16) (setting [1]).
